According to patent US20170252442A1, “PHOTOHEXER COMPOUNDS AND PHARMACEUTICAL COMPOSITION AND USE THEREOF” (RAINBOW PHARMATECH LLC, priority 2014, published 2017):

Assays:
[1] = test system: MDA-MB-231 cells; assay: MTT assay, photodynamic therapy on MDA-MB-231 cells; format: cell-based, human
Text: (§1) The cells in logarithmic growth phase were collected and inoculated on 24-well culture plates. When reaching 70%-80% confluence, cells were divided randomly into the following groups: control (the parallel control group without photosensitizer and irradiation), irradiation (irradiation treatment alone without photosensitizer); (photosensitizer treatment alone without irradiation), photodynamic treatment (treatment by photosensitizer in combination with irradiation). For the photosensitizer alone treatment group and photodynamic treatment group, an appropriate amount of Photohexer-1 (P-1) or Photohexer-2 (P-2) was respectively added away from light to give a final concentration of 0.8, 1.6, 3.2, 6.4 μM. Each group set 3 replicates. Cells were incubated with the active agent, different treatments were carried out according to the grouping. […] After treatment and digestion of each group of cells, it was inoculated into a 96-well plate at 100 μL/well, and four wells were set for each treatment. MTT assay was performed after 24 h from inoculation: 20 μL MTT solution was added to each well under the condition away from light, and the culture was continued for 4 hours. 150 μL DMSO was added to each well after discarding the supernatant. After 15 min of dissolution, the absorbance value (OD value) was measured using a microplate reader and the relative survival rate of cells was calculated according to the following formula: […]

[2] = test system: MCF-7/ADR cells; assay: MTT assay, photodynamic therapy on MCF-7/ADR cells; format: cell-based, human
Text: as §1

[3] = test system: SGC7901 cells; assay: MTT assay, photodynamic therapy on SGC7901 cells; format: cell-based, human
Text: as §1

[4] = test system: MCF-7 cells; assay: MTT assay, photodynamic therapy on MCF-7 cells; format: cell-based, human
Text: as §1

[5] = Storage stability determination; format: physicochemical; settings: 3 months of storage in dark at 2-4
Method: The storage stability of Photohexer-1 and Photohexer-2 was determined by conventional methods in the art.

[6] = test system: CT26 cells; assay: MTT assay, photodynamic therapy on CT26 cells; format: cell-based, murine
Text: as §1

[7] = test system: the cell lines; assay: MTT assay, summary over the cell lines (photosensitizer alone); format: cell-based; settings: without light irradiation; selected drug concentration range (0.8-6.4 μM)
Text: The cells in logarithmic growth phase were collected and inoculated on 24-well culture plates. When reaching 70%-80% confluence, cells were divided randomly into the following groups: control (the parallel control group without photosensitizer and irradiation), irradiation (irradiation treatment alone without photosensitizer); (photosensitizer treatment alone without irradiation), photodynamic treatment (treatment by photosensitizer in combination with irradiation). For the photosensitizer alone treatment group and photodynamic treatment group, an appropriate amount of Photohexer-1 (P-1) or Photohexer-2 (P-2) was respectively added away from light to give a final concentration of 0.8, 1.6, 3.2, 6.4 μM. Each group set 3 replicates. Cells were incubated with the active agent, different treatments were carried out according to the grouping. Three different light intensities were selected for the photodynamic treatment group, which were 2.6, 5.2 and 12.4 J/cm^2, respectively. After treatment and digestion of each group of cells, it was inoculated into a 96-well plate at 100 μL/well, and four wells were set for each treatment. […] After 15 min of dissolution, the absorbance value (OD value) was measured using a microplate reader and the relative survival rate of cells was calculated according to the following formula: […]

[8] = test system: SW-620 cells; assay: MTT assay, photodynamic therapy on SW-620 cells; format: cell-based, human
Text: as §1

[9] = 0.8 μM alone treatment, without irradiation
[10] = 0.8 μM combined with 2.6 J/cm^2 light irradiation
[11] = 0.8 μM combined with 5.2 J/cm^2 light irradiation
[12] = 0.8 μM combined with 10.4 J/cm^2 light irradiation
[13] = 1.6 μM alone treatment, without irradiation
[14] = 1.6 μM combined with 2.6 J/cm^2 light irradiation
[15] = 1.6 μM combined with 5.2 J/cm^2 light irradiation
[16] = 1.6 μM combined with 10.4 J/cm^2 light irradiation
[17] = 3.2 μM alone treatment, without irradiation
[18] = 3.2 μM combined with 2.6 J/cm^2 light irradiation
[19] = 3.2 μM combined with 5.2 J/cm^2 light irradiation
[20] = 3.2 μM combined with 10.4 J/cm^2 light irradiation
[21] = 6.4 μM alone treatment, without irradiation
[22] = 6.4 μM combined with 2.6 J/cm^2 light irradiation
[23] = 6.4 μM combined with 5.2 J/cm^2 light irradiation
[24] = 6.4 μM combined with 10.4 J/cm^2 light irradiation

Structure (SMILES): C=CC1=C(C)c2cc3[nH]c(cc4nc(cc5[nH]c(cc1n2)c(C)c5CCC(=O)[O-])C(CCC(=O)[O-])=C4C)c(C)c3C(C)OCCCCCC.[Na+].[Na+] (stereo not drawn) [Photohexer P-1, 2-(1-hexyloxyethyl)-6,7-bis(propionatesodium)-1,3,5,8-tetramethyl-4-vinylporphyrin]
- Cell survival rate [1, 9]: 97.82 ± 3.12%
- Cell survival rate [1, 10]: 93.29 ± 3.66%
- Cell survival rate [1, 11]: 90.67 ± 4.08%
- Cell survival rate [1, 12]: 88.23 ± 4.09%
- Cell survival rate [1, 13]: 91.07 ± 2.02%
- Cell survival rate [1, 14]: 81.63 ± 2.87%
- Cell survival rate [1, 15]: 76.33 ± 2.91%
- Cell survival rate [1, 16]: 71.13 ± 3.79%
- Cell survival rate [1, 17]: 75.52 ± 1.07%
- Cell survival rate [1, 18]: 70.24 ± 2.03%
- Cell survival rate [1, 19]: 68.08 ± 1.43%
- Cell survival rate [1, 20]: 61.29 ± 2.27%
- Cell survival rate [1, 21]: 70.10 ± 0.99%
- Cell survival rate [1, 22]: 62.22 ± 1.04%
- Cell survival rate [1, 23]: 64.88 ± 1.07%
- Cell survival rate [1, 24]: 56.27 ± 1.06%
- cell toxicity [2]: significant cell toxicity
- Cell survival rate [2, 9]: 100.36 ± 3.70%
- Cell survival rate [2, 10]: 55.89 ± 3.97%
- Cell survival rate [2, 11]: 41.47 ± 4.88%
- Cell survival rate [2, 12]: 37.45 ± 4.34%
- Cell survival rate [2, 13]: 93.95 ± 2.47%
- Cell survival rate [2, 14]: 53.43 ± 2.96%
- Cell survival rate [2, 15]: 38.42 ± 2.51%
- Cell survival rate [2, 16]: 32.58 ± 3.54%
- Cell survival rate [2, 17]: 81.01 ± 1.58%
- Cell survival rate [2, 18]: 50.99 ± 2.31%
- Cell survival rate [2, 19]: 36.95 ± 1.89%
- Cell survival rate [2, 20]: 31.79 ± 2.65%
- Cell survival rate [2, 21]: 46.84 ± 1.02%
- Cell survival rate [2, 22]: 45.48 ± 1.04%
- Cell survival rate [2, 23]: 33.47 ± 1.41%
- Cell survival rate [2, 24]: 27.27 ± 1.07%
- Cell survival rate [3, 9]: 100.39 ± 0.20%
- Cell survival rate [3, 10]: 90.25 ± 2.16%
- Cell survival rate [3, 11]: 92.41 ± 0.63%
- Cell survival rate [3, 12]: 92.26 ± 1.16%
- Cell survival rate [3, 13]: 99.22 ± 1.37%
- Cell survival rate [3, 14]: 91.19 ± 2.89%
- Cell survival rate [3, 15]: 92.29 ± 0.15%
- Cell survival rate [3, 16]: 89.21 ± 0.24%
- Cell survival rate [3, 17]: 95.80 ± 1.59%
- Cell survival rate [3, 18]: 88.70 ± 1.24%
- Cell survival rate [3, 19]: 85.49 ± 0.99%
- Cell survival rate [3, 20]: 77.02 ± 0.04%
- Cell survival rate [3, 21]: 89.77 ± 4.99%
- Cell survival rate [3, 22]: 77.76 ± 0.22%
- Cell survival rate [3, 23]: 69.94 ± 0.56%
- Cell survival rate [3, 24]: 38.34 ± 0.13%
- killing effect of photodynamic therapy ([3]; drug-dose and light-intensity dependent): obvious killing effect
- sensitivity compared between P-1 and P-2 [4]: more sensitive than P-2
- Cell survival rate [4, 9]: 102.94 ± 3.04%
- Cell survival rate [4, 10]: 78.02 ± 4.55%
- Cell survival rate [4, 11]: 68.03 ± 3.97%
- Cell survival rate [4, 12]: 63.99 ± 4.42%
- Cell survival rate [4, 13]: 82.48 ± 2.24%
- Cell survival rate [4, 14]: 65.32 ± 2.43%
- Cell survival rate [4, 15]: 47.92 ± 2.82%
- Cell survival rate [4, 16]: 49.71 ± 3.94%
- Cell survival rate [4, 17]: 71.23 ± 1.76%
- Cell survival rate [4, 18]: 54.13 ± 2.04%
- Cell survival rate [4, 19]: 45.96 ± 1.76%
- Cell survival rate [4, 20]: 46.98 ± 2.67%
- Cell survival rate [4, 21]: 60.81 ± 1.04%
- Cell survival rate [4, 22]: 50.88 ± 1.02%
- Cell survival rate [4, 23]: 41.69 ± 1.02%
- Cell survival rate [4, 24]: 44.28 ± 1.07%
- storage stability (content change by HPLC test) [5]: no content change
- toxic side effects compared between P-1 and P-2 [6]: higher than those of P-2
- Cell survival rate [6, 9]: 93.23 ± 3.43%
- Cell survival rate [6, 10]: 91.63 ± 3.46%
- Cell survival rate [6, 11]: 82.12 ± 4.98%
- Cell survival rate [6, 12]: 82.39 ± 4.63%
- Cell survival rate [6, 13]: 87.15 ± 2.45%
- Cell survival rate [6, 14]: 62.86 ± 2.29%
- Cell survival rate [6, 15]: 55.88 ± 2.95%
- Cell survival rate [6, 16]: 44.00 ± 3.29%
- Cell survival rate [6, 17]: 56.13 ± 1.69%
- Cell survival rate [6, 18]: 49.48 ± 2.06%
- Cell survival rate [6, 19]: 44.86 ± 1.57%
- Cell survival rate [6, 20]: 41.00 ± 2.66%
- Cell survival rate [6, 21]: 44.05 ± 1.26%
- Cell survival rate [6, 22]: 36.03 ± 1.17%
- Cell survival rate [6, 23]: 30.01 ± 1.07%
- Cell survival rate [6, 24]: 28.55 ± 1.47%
- cytotoxicity of alone treatment [7]: did not produce significant cytotoxicity
- Cell survival rate [8, 9]: 101.33 ± 3.20%
- Cell survival rate [8, 10]: 100.74 ± 3.46%
- Cell survival rate [8, 11]: 99.53 ± 3.71%
- Cell survival rate [8, 12]: 94.65 ± 4.04%
- Cell survival rate [8, 13]: 100.99 ± 2.47%
- Cell survival rate [8, 14]: 96.64 ± 2.79%
- Cell survival rate [8, 15]: 91.84 ± 2.97%
- Cell survival rate [8, 16]: 87.51 ± 3.16%
- Cell survival rate [8, 17]: 98.23 ± 1.59%
- Cell survival rate [8, 18]: 91.39 ± 2.18%
- Cell survival rate [8, 19]: 87.50 ± 1.69%
- Cell survival rate [8, 20]: 82.58 ± 2.31%
- Cell survival rate [8, 21]: 94.83 ± 1.09%
- Cell survival rate [8, 22]: 86.70 ± 1.07%
- Cell survival rate [8, 23]: 75.53 ± 1.03%
- Cell survival rate [8, 24]: 68.33 ± 1.11%
